Ends that are not written are not given here.
Assays:
[1] = tested on: human mesenchymal stem cells (hMSC); assay: Cytotoxicity / cell proliferation by quantitative BrdU assay; assay type: cell-based; set-up: dose or concentration left out as unconfirmed; conditions: 24, 48, and 72 hours, FIG. 6
Protocol: In order to confirm whether or not cell proliferation is affected by potential toxicity when the cell permeable peptide-bone differentiation inducing sequence conjugate and control domains are cultured with hMSC, a degree of cell proliferation was analysis by ELISA using BrdU. Since BrdU was introduced in chromosome instead of deoxy thymidine triphosphate (dTTP) at the time of DNA replication during a proliferation process of hMSC, a degree of introduction of BrdU may reflect a degree of proliferation of hMSC.
First, After 1×10^3 human Mesenchymal Stem cells (hMSC) were plated into each well of 96-well plate, the degree of introduction of BrdU, that is, the degree of proliferation of hMSC was measured using a cell proliferation ELISA kit (BrdU (colorimetry); Boehringermanheim, Germany). Simply describing this method, the cells were treated with the cell permeable peptide-bone differentiation inducing sequence conjugate synthesized by the method in Example 1 and the domains of Example 2 at a concentration of […] and cultured in medium for forming hard tissue for 24, 48, and 72 hours. […] of BrdU (5-bromo-2′-deoxyuridine) was added to each of the groups before 24 hours of each culture time and further cultured for 24 hours. […] The reaction was terminated by 1N H2SO4, and then absorbance was measured using the ELISA reader (Bio-Tek, USA) at 450 nm.

[2] = tested on: human mesenchymal stem cells (hMSC); assay: Cytotoxicity by MTT assay; assay type: cell-based; set-up: dose or concentration left out as unconfirmed; conditions: 24, 48, and 72 hours, FIG. 5
Protocol: In order to confirm whether or not cell proliferation is affected by potential toxicity when the cell permeable peptide-bone differentiation inducing sequence conjugate and control domains are cultured with hMSC, a 3-[4,5-dimethylthiazo-2-yl]-2,5-diphenyl tetrazolium bromide thiazolyl blue (MTT) assay method was used.
The MTT assay method is a method for measuring cytotoxicity by measuring absorbance of formazan produced as mitochondrial dehydrogenases in alive and metabolically active cells reduces MTT to indicate the absorbance as a percentage based on the control group. In this case, the measured absorbance reflects a concentration of the alive and metabolically active cells. 2,3,5-triphenyl tetrazolium chloride (TTC) is reduced to formazan in live cells. The formazan is insoluble purple color, and a respiration rate may be measured by a degree of color. The absorbance of formazan is maximal at 540 nm, and the absorbance measured at this wavelength reflects the concentration of the alive and metabolically active cells. Since a linear relationship between the absorbance and the concentration of the cells is not established when a concentration of cells in well to be measured is excessively high or low, a process of determining an optimal concentration of the cells was performed. […]

[3] = target: T1, human-derived Smurf1 protein (Homo sapiens, UniProt Q9HCE7); assay: Affinity to Smurf1 by surface plasmon resonance (BIACORE T100); assay type: binding; conditions: 10 mM analyte over Smurf1 coupled to CM5 chip; FIG. 2A
T1 construct: purchased Origene Technologies (Rockville, Md., USA)
T1 sequence (Q9HCE7 whole entry): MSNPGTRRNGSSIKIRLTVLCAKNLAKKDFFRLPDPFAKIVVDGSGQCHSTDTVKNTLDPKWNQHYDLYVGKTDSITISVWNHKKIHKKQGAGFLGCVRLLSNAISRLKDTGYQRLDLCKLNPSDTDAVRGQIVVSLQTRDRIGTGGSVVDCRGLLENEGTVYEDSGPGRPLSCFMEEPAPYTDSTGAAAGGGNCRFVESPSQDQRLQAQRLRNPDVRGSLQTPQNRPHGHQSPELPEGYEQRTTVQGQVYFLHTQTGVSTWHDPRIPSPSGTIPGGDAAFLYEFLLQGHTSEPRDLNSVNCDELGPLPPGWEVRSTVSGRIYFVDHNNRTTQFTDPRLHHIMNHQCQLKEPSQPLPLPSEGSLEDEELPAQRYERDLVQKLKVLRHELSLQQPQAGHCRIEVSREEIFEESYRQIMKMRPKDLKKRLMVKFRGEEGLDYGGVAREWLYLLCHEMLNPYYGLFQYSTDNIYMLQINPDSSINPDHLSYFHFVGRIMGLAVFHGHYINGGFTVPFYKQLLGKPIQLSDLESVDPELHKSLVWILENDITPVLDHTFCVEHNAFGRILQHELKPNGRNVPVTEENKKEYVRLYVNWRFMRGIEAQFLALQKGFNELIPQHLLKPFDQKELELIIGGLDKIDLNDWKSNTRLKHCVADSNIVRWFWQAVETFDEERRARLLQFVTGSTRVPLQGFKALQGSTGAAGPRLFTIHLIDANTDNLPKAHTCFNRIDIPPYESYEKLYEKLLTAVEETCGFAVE
Protocol: In order to confirm the affinity between cell permeable peptide-bone differentiation inducing sequence conjugate and Smurf1 by a chemical method, a human-derived Smurf1 protein acting as a ligand in the present experiment was purchased from Origene Technologies (Rockville, Md., USA). The protein ([…]) was coupled to a gold coated surface of a CM5 chip (BIACORE AB, Sweden) on which amino groups are bounded using an EDC/NHS kit (BIACORE AB, Sweden). (Instead of this experimental method, ‘Immobilization’ integrated into the BIACORE® T100 (BIACORE AB, Sweden) software used by the present inventors may be used). In this case, in order to find a suitable pH condition at which the protein may bind to the amino group in the CM5 chip, a method called ‘pH scouting’ was performed, thereby finding a pH condition. As a method of ‘pH scouting’, a method integrated in the BIACORE® T100 (BIACORE AB, Sweden) software used by the present inventors may be used. […]

[4] = tested on: human mesenchymal stem cells (hMSC); assay: Cell permeability by fluorescence imaging (confocal scanning microscope); assay type: cell-based; conditions: FITC/fluorescence-labeled, FIG. 3A, FIG. 7
Protocol: The domains synthesized in Example 1 and Comparative Examples 1 and 2 were labeled with a fluorescent material in order to measure cell permeability. 10 equivalents of fluorescein isothiocyanate (FITC) was bound to N-terminals of the synthesized domains by using triethylamine (1 ml per 1 g of resin). The synthesis of the peptide was confirmed by measuring the molecular weight thereof through MALDI-TOF.
In order to measure the cell permeability of the cell permeable peptide-bone differentiation inducing sequence conjugate, after sterile slide glass was input in a 6-well plate and 2×10^4 human mesenchymal stem cells (hMSC) were plated in each well, the cells were cultured in a general medium for 20 hours (overnight incubation). Then the cells was cultured in an hMSC basal medium (MSCBM, LONZA, USA) containing 0.5% fetal bovine serum (FBS, GIBCO, USA) for 20 hours (overnight starvation). […] fluorescence labeled cell permeable peptide-bone differentiation inducing sequence conjugate and […] fluorescence labeled bone differentiation inducing sequence that were obtained by binding FITC (SIGMA, USA) N-terminals of the cell permeable peptide-bone differentiation inducing sequence conjugate synthesized by the method in Example 1 and the domain in Comparative Example 2 to synthesize the fluorescence label conjugate and fluorescence label domain, followed by isolation and purification, were injected into each well and washed with phosphate buffer solution (PBS) two times after 20 minutes and 80 minutes of injection. The resultants was observed using a confocal scanning microscope (IX 70, Olympus Co., Tokyo, Japan).

GAPPPADSAP-NH2 [Comparative Example 2, GAPPPADSAP, reference compound]
effect on cell proliferation (BrdU, DNA synthesis ability compared with PBS) [1]: did not affect the cell proliferation | cytotoxicity (MTT, cell proliferation ability compared with PBS) [2]: did not exhibit cytotoxicity

SSRKKNPNCRRH (H4S) [Comparative Example 1]
affinity to Smurf1 [3]: 100 RU | intracellular fluorescence after 20 minutes (confocal) [4]: fluorescent materials uniformly present in cytoplasm were observed | intracellular fluorescence after 80 minutes (confocal) [4]: fluorescent materials densely present up to in nucleus were confirmed

YGRKKRRQRRR [TAT, reference compound]
intracellular fluorescence after 20 minutes (confocal) [4]: fluorescent materials uniformly present in cytoplasm were observed | intracellular fluorescence after 80 minutes (confocal) [4]: fluorescent materials densely present up to in nucleus were confirmed

From US9023987B2, “Cell-permeable peptide” (Seoul National University R&DB Foundation, priority 2010, dated 2015)
